Results on 12 molecules are retold here after paper PMC7531004, “Discovery of gramicidin A analogues with altered activities by multidimensional screening of a one-bead-one-compound library” (Nature Communications, 2020).

Where a SMILES comes first, the peptide text is derived from it. [ ]: non-standard residue; d: D form. The star is where a group is joined. NHCH2CH2OH = OCCN*; For = O=C*

A short description of data set [1]: H+/Na+ transport assay of bead-derived peptides (one-point).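 Note: relative to parent gramicidin A activity set to 1.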 It counts as biochemical. Also noted: key: relative activity; mean of two control wells = 1.00. The conditions noted are these: bead-derived peptide solution, EYPC/EYPG LUVs. The gist of the method:
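One-point screen: peptide + pyranine-loaded LUVs, 30 min RT with vortexing, 96-well. Read-out is fluorescence intensity scaled as 100 × (Ix – I0)/(Imax – I0). Imax from Triton X-100, I0 from untreated vesicles, and the mean of the two control wells is set to 1.00.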

Data set [2] has as its system P388 mouse leukemia cells. The conditions noted are these: 92 h. Put shortly:
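First, library peptide stocks are diluted 250-fold in RPMI1640 with 10% heat-inactivated FBS. Next, they are mixed with P388 cells to give 1 × 10^4 cells/mL and incubated 92 h at 37 °C, 5% CO2. Finally, viability (%) is scored by WST-1 absorbance at 415 nm.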

The subject of data set [3] is Streptococcus pyogenes SSI-9. Description: Antibacterial activity assay of bead-derived peptides (three concentrations). Type of data set: cell-based. Set-up: key: +++: inhibition by the 640-fold diluted peptide solution; ++: inhibition by the 160-fold diluted solution; +: inhibition by the 40-fold diluted solution; -: no inhibition. The conditions noted are these: S. pyogenes, bead-derived peptide solution, three concentrations. Put shortly:
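Three stock dilutions per peptide (none, 4-fold, 16-fold in DMSO) are screened in 96-well format. The medium is blood-supplemented cation-adjusted MHB, inoculated with 2 × 10^5 CFU S. pyogenes SSI-9. Growth is read as cell precipitation at 18 h, 37 °C.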

Consider `CC(C)C[C@@H](NC(=O)[C@H](C)NC(=O)CNC(=O)[C@@H](NC=O)C(C)C)C(=O)N[C@@H](C)C(=O)N[C@@H](C(=O)N[C@H](C(=O)N[C@H](CC(C)C)C(=O)N[C@@H](Cc1c[nH]c2ccccc12)C(=O)N[C@@H](C(=O)N[C@@H](Cc1c[nH]c2ccccc12)C(=O)N[C@@H](C(=O)N[C@@H](Cc1c[nH]c2ccccc12)C(=O)N[C@@H](C(=O)N[C@@H](Cc1c[nH]c2ccccc12)C(=O)NCCO)C(C)C)C(C)C)C(C)C)C(C)C)C(C)C` [compound 8796] (For-VGA[dL]A[dV]V[dL]W[dV]W[dV]W[dV]W-NHCH2CH2OH), for which the “H+/Na+ transport activity normalized against the value of 1 (1.00)” value (from here on “H+/Na+ transport activity normalized”) in data set [1] is listed as 1.15. This molecule also gave a cell viability/% in data set [2] of 74.1%. In addition, the antibacterial activity entry in data set [3] is “+”.
For `CNC(=O)C[C@@H](NC(=O)[C@@H](NC(=O)[C@H](NC(=O)[C@H](C)NC(=O)[C@@H](CC(C)C)NC(=O)[C@H](C)NC(=O)CNC(=O)[C@@H](NC=O)C(C)C)C(C)C)C(C)C)C(=O)N[C@@H](Cc1c[nH]c2ccccc12)C(=O)N[C@H](CC(C)C)C(=O)N[C@@H](Cc1c[nH]c2ccccc12)C(=O)N[C@H](CC(C)C)C(=O)N[C@@H](Cc1c[nH]c2ccccc12)C(=O)N[C@@H](C(=O)N[C@@H](Cc1c[nH]c2ccccc12)C(=O)NCCO)C(C)C` [compound 8831] (For-VGA[dL]A[dV]V[dD](NHMe)W[dL]W[dL]W[dV]W-NHCH2CH2OH) the same measures were 1.23, 81.1% and “-”.
On the same counts, the results for `CC(C)C[C@@H](NC(=O)[C@H](C)NC(=O)CNC(=O)[C@@H](NC=O)C(C)C)C(=O)N[C@@H](C)C(=O)N[C@H](CC(C)C)C(=O)N[C@H](C(=O)N[C@@H](C(=O)N[C@@H](Cc1c[nH]c2ccccc12)C(=O)N[C@@H](C(=O)N[C@@H](Cc1c[nH]c2ccccc12)C(=O)N[C@H](CC(C)C)C(=O)N[C@@H](Cc1c[nH]c2ccccc12)C(=O)N[C@H](CC(C)C)C(=O)N[C@@H](Cc1c[nH]c2ccccc12)C(=O)NCCO)C(C)C)C(C)C)C(C)C` [compound 8858] (For-VGA[dL]A[dL]V[dV]W[dV]W[dL]W[dL]W-NHCH2CH2OH) are 1.05, 84.7% and “+”.
For `CC(C)C[C@@H](NC(=O)[C@H](C)NC(=O)CNC(=O)[C@@H](NC=O)C(C)C)C(=O)N[C@@H](C)C(=O)N[C@@H](C(=O)N[C@H](C(=O)N[C@H](CC(C)C)C(=O)N[C@@H](Cc1c[nH]c2ccccc12)C(=O)N[C@@H](C(=O)N[C@@H](Cc1c[nH]c2ccccc12)C(=O)N[C@H](CC(C)C)C(=O)N[C@@H](Cc1c[nH]c2ccccc12)C(=O)N[C@@H](C(=O)N[C@@H](Cc1c[nH]c2ccccc12)C(=O)NCCO)[C@H](C)O)C(C)C)C(C)C)C(C)C` [compound 8906] (For-VGA[dL]A[dV]V[dL]W[dV]W[dL]W[dT]W-NHCH2CH2OH) the same measures were 1.08, 79.1% and “+”.
As to `CC(C)C[C@@H](NC(=O)[C@H](C)NC(=O)[C@H](NC(=O)[C@H](C)NC(=O)CNC(=O)[C@@H](NC=O)C(C)C)C(C)C)C(=O)N[C@H](C(=O)N[C@@H](C(=O)N[C@@H](Cc1c[nH]c2ccccc12)C(=O)N[C@@H](C(=O)N[C@@H](Cc1c[nH]c2ccccc12)C(=O)N[C@@H](C(=O)N[C@@H](Cc1c[nH]c2ccccc12)C(=O)N[C@@H](C(=O)N[C@@H](Cc1c[nH]c2ccccc12)C(=O)NCCO)C(C)C)C(C)C)C(C)C)C(C)C)C(C)C` [compound 8909] (For-VGA[dV]A[dL]V[dV]W[dV]W[dV]W[dV]W-NHCH2CH2OH), the “H+/Na+ transport activity normalized” value in data set [1] is 1.04. The molecule further came in with a cell viability/% in data set [2] of 85.9%. Also, the antibacterial activity entry in data set [3] is recorded as “+”.
For the molecule `CC(C)C[C@@H](NC(=O)[C@H](Cc1c[nH]c2ccccc12)NC(=O)[C@@H](CC(C)C)NC(=O)[C@@H](NC(=O)[C@H](NC(=O)[C@H](C)NC(=O)[C@H](NC(=O)[C@H](C)NC(=O)CNC(=O)[C@@H](NC=O)C(C)C)C(C)C)C(C)C)C(C)C)C(=O)N[C@@H](Cc1c[nH]c2ccccc12)C(=O)N[C@@H](C(=O)N[C@@H](Cc1c[nH]c2ccccc12)C(=O)N[C@@H](C(=O)N[C@@H](Cc1c[nH]c2ccccc12)C(=O)NCCO)C(C)C)C(C)C` [compound 8969] (For-VGA[dV]A[dV]V[dL]W[dL]W[dV]W[dV]W-NHCH2CH2OH), in data set [1], the “H+/Na+ transport activity normalized” value is 1.09. In data set [2], this molecule registered a cell viability/% of 8.7%. In data set [3], the antibacterial activity entry was “-”.
For `CNC(=O)C[C@@H](NC(=O)[C@@H](NC(=O)[C@H](NC(=O)[C@H](C)NC(=O)[C@H](NC(=O)[C@H](C)NC(=O)CNC(=O)[C@@H](NC=O)C(C)C)C(C)C)C(C)C)C(C)C)C(=O)N[C@@H](Cc1c[nH]c2ccccc12)C(=O)N[C@H](CC(C)C)C(=O)N[C@@H](Cc1c[nH]c2ccccc12)C(=O)N[C@H](CC(C)C)C(=O)N[C@@H](Cc1c[nH]c2ccccc12)C(=O)N[C@H](CC(C)C)C(=O)N[C@@H](Cc1c[nH]c2ccccc12)C(=O)NCCO` [compound 8982] (For-VGA[dV]A[dV]V[dD](NHMe)W[dL]W[dL]W[dL]W-NHCH2CH2OH) the same measures were 1.21, 49.1% and “-”.
For the molecule `CC(C)C[C@@H](NC(=O)[C@H](C)NC(=O)[C@H](NC(=O)[C@H](C)NC(=O)CNC(=O)[C@@H](NC=O)C(C)C)C(C)C)C(=O)N[C@H](C(=O)N[C@@H](C(=O)N[C@@H](Cc1c[nH]c2ccccc12)C(=O)N[C@H](CC(C)C)C(=O)N[C@@H](Cc1c[nH]c2ccccc12)C(=O)N[C@H](CC(C)C)C(=O)N[C@@H](Cc1c[nH]c2ccccc12)C(=O)N[C@@H](C(=O)N[C@@H](Cc1c[nH]c2ccccc12)C(=O)NCCO)C(C)C)[C@H](C)O)C(C)C` [compound 8984] (For-VGA[dV]A[dL]V[dT]W[dL]W[dL]W[dV]W-NHCH2CH2OH), the “H+/Na+ transport activity normalized” value in data set [1] is recorded as 1.12. The molecule also registered a cell viability/% in data set [2] of 57.9%. The antibacterial activity entry in data set [3] is recorded as “-”.
For `CNC(=O)C[C@@H](NC(=O)[C@@H](NC(=O)[C@@H](CC(C)C)NC(=O)[C@H](C)NC(=O)[C@@H](CC(C)C)NC(=O)[C@H](C)NC(=O)CNC(=O)[C@@H](NC=O)C(C)C)C(C)C)C(=O)N[C@@H](Cc1c[nH]c2ccccc12)C(=O)N[C@H](CC(C)C)C(=O)N[C@@H](Cc1c[nH]c2ccccc12)C(=O)N[C@H](CC(C)C)C(=O)N[C@@H](Cc1c[nH]c2ccccc12)C(=O)N[C@@H](C(=O)N[C@@H](Cc1c[nH]c2ccccc12)C(=O)NCCO)[C@H](C)O` [compound 8992] (For-VGA[dL]A[dL]V[dD](NHMe)W[dL]W[dL]W[dT]W-NHCH2CH2OH), in data set [1], the “H+/Na+ transport activity normalized” value was 1.07. In data set [2], the cell viability/% is 56.1%. Further, the antibacterial activity entry in data set [3] is listed as “-”.
For `CC(C)C[C@@H](NC(=O)[C@H](Cc1c[nH]c2ccccc12)NC(=O)[C@@H](CC(C)C)NC(=O)[C@H](Cc1c[nH]c2ccccc12)NC(=O)[C@H](NC(=O)[C@H](Cc1c[nH]c2ccccc12)NC(=O)[C@@H](CC(C)C)NC(=O)[C@@H](NC(=O)[C@H](NC(=O)[C@H](C)NC(=O)[C@H](NC(=O)[C@H](C)NC(=O)CNC(=O)[C@@H](NC=O)C(C)C)C(C)C)C(C)C)C(C)C)C(C)C)C(=O)N[C@@H](Cc1c[nH]c2ccccc12)C(=O)NCCO` [compound 8999] (For-VGA[dV]A[dV]V[dL]W[dV]W[dL]W[dL]W-NHCH2CH2OH) the same measures were 1.03, 96.1% and “+”.
On the same counts, the results for `CC(C)C[C@@H](NC(=O)[C@H](C)NC(=O)CNC(=O)[C@@H](NC=O)C(C)C)C(=O)N[C@@H](C)C(=O)N[C@@H](C(=O)N[C@H](C(=O)N[C@@H](C(=O)N[C@@H](Cc1c[nH]c2ccccc12)C(=O)N[C@H](CC(C)C)C(=O)N[C@@H](Cc1c[nH]c2ccccc12)C(=O)N[C@H](CC(C)C)C(=O)N[C@@H](Cc1c[nH]c2ccccc12)C(=O)N[C@H](CC(C)C)C(=O)N[C@@H](Cc1c[nH]c2ccccc12)C(=O)NCCO)C(C)C)C(C)C)C(C)C` [compound 9000] (For-VGA[dL]A[dV]V[dV]W[dL]W[dL]W[dL]W-NHCH2CH2OH) are 1.21, 7.4% and “+”.
On the same counts, the results for `CC(C)C[C@@H](NC(=O)[C@H](C)NC(=O)CNC(=O)[C@@H](NC=O)C(C)C)C(=O)N[C@@H](C)C(=O)N[C@@H](C(=O)N[C@H](C(=O)N[C@@H](C(=O)N[C@@H](Cc1c[nH]c2ccccc12)C(=O)N[C@@H](C(=O)N[C@@H](Cc1c[nH]c2ccccc12)C(=O)N[C@H](CC(C)C)C(=O)N[C@@H](Cc1c[nH]c2ccccc12)C(=O)N[C@@H](C(=O)N[C@@H](Cc1c[nH]c2ccccc12)C(=O)NCCO)C(C)C)C(C)C)C(C)C)C(C)C)[C@H](C)O` [compound 9030] (For-VGA[dL]A[dT]V[dV]W[dV]W[dL]W[dV]W-NHCH2CH2OH) are 1.12, 71.3% and “-”.
